Data on 1 molecule can be found in patent US10632064B2, “Topical regional neuro affective therapy with cannabinoid combination products” (Afgin Pharma, LLC, priority 2015, dated 2020).

Type in all cases: in vivo, human
Assay [1] concerns patients having seizures, encephalopathy, and/or spasticity. In words: Example 8: topical CBD at the back of the neck (Table 2). The protocol: In Example 8, 34 patients having seizures, encephalopathy, and/or spasticity were treated with topical CBD at the back of the neck. The treatment comprised a dose of either 15 mg or 30 mg cannabinoid drugs, with the majority being CBD, the source of the CBD being CBD oil commercially available from CannaVest.

For assay [2], the system named is patients having back/spine pain, fibromyalgia, and/or extremity pain. In words: Example 10: topical CBD (Table 4). As for the experimental part:
In Example 10, 16 patients having back/spine pain, fibromyalgia, and/or extremity pain were treated with topical CBD at the back of the neck. The treatment comprised a dose of either 15 mg or 30 mg cannabinoid drugs, with the majority being CBD, the source of the CBD being CBD oil commercially available from CannaVest.

Assay [3] deals with person, cerebellar posterior fossa cyst, generalized seizure. Description: Example 13: 2% CBD cream to the nuchal region, absence seizures, EEG. The protocol: In Example 13, person suffering from a cerebellar posterior fossa cyst, generalized seizure manifesting as standing and staring and unresponsive was treating in accordance with the present invention. FIG. 2 is an EEG showing a baseline EEG of the patient of Example 13. […] Previously, ethosuximide had been recommended for treatment, but the parents were reluctant to have the patient on a systemic […] therapy in view of the potential side effects. The patient was treated with a 2% CBD cream to the nuchal (back of the neck) region twice a day. After two weeks, the dosage regimen was changed to one application per day.

“And” between values parts separate entries of the source, which are not always exact repeats. Equal values may be shown once. “Also recorded” adds a separate entry of the source.

As for `C=C(C)[C@@H]1CCC(C)=C[C@H]1c1c(O)cc(CCCCC)cc1O` [CBD, cannabidiol], the “time after topical CBD at which the effect was seen” value is 15 minutes after application of topical CBD and 10 minutes after topical CBD to back of and state within 10 minutes. and ≤ 15 minutes and 3 minutes after topical CBD application, and 30 minutes after topical CBD to back of in assay [1] (15 mg or 30 mg, back of neck, single patients); 5 minutes (2×) and 10 minutes and within 10 minutes. and Within 15 minutes of topical CBD application and ≤ 15 minutes and ≤ 10 minutes and within 2 minutes of application in assay [2] (single patients). Besides, the seizure frequency reduced entry in assay [1] (after 2 months use, person with Aicardi syndrome, intractable seizures) is “reduced 60%. Prior doses of Lamicatal and”. The spasticity decrease/improvement in assay [1] (after one application/treatment of topical CBD to back of neck, single patients) was 80% and Severe baseline spasticity improved 70% and spasticity by 30% from baseline. and 30% reduction in spasticity in all 4. For the same molecule, the duration of effect result in assay [1] (person s/p head injury, topical CBD to back of neck) is “lasted 8 hours. Now on 3×/day”. Also, the “result after topical CBD, in words (Table 4)” value in assay [2] (15 mg or 30 mg cannabinoid drugs (CBD oil) topical, one patient per entry) was “Right hand symptoms improved after topical; also recorded: improved strength; also recorded: relief better than Tramadol; also recorded: improved mobility and back pain relief; also recorded: back of neck and back 3×/day; pain relief”. The pain reduction/relief result in assay [2] (after topical CBD, single patients) is “pain diminished 40% with improved and 30-40% and 30% (2×) and 50% and 60% reduction in chronic pain within a few”. Further, the “left lower extremity pain after topical CBD” value in assay [2] (person, before 6 of 10, after 10 minutes) is reported as 2 /10. Besides, the “clinical findings at the two week check-up” value in assay [3] (2% CBD cream to nuchal region twice a day) is “No seizures were noted; also recorded: no long bed wetting; also recorded: reading levels had increased two levels”. Further, the EEG post-treatment entry in assay [3] (5 minutes after the start of therapy (FIG. 3)) is recorded as “attenuated seizure focus”; in assay [3] (8 minutes after the start of therapy (FIG. 4)), “further attenuation of seizure focus”.
